Results: ChEMBL document CHEMBL4602626, “Structure activity relationship, 6-modified purine riboside analogues to activate hSTING, stimulator of interferon genes” (Bioorg Med Chem Lett, 2020)
Calls of active or inactive are those of the source. The calls are words filed in the database; no cut-off is given here.

Target: Stimulator of interferon genes protein (Homo sapiens) (UniProt Q86WV6)
Assay: Activation of human STING expressed in monocytes co-expressing IFN assessed as alkaline phosphatase secretion by SEAP reporter gene assay
Format: cell-based

Chain of Stimulator of interferon genes protein (Homo sapiens) (Q86WV6 whole entry): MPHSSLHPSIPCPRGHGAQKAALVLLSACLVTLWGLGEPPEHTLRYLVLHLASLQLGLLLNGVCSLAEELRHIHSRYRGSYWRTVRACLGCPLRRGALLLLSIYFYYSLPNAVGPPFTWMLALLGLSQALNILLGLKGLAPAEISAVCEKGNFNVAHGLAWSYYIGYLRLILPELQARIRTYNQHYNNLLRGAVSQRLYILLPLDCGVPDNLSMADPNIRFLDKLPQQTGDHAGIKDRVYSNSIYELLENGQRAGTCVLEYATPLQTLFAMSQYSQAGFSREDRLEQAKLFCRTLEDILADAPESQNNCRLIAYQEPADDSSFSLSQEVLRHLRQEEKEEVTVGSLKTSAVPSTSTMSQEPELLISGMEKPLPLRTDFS

Activity | SMILES
Active | OC[C@H]1O[C@@H](n2cnc3c(OCC(F)(F)F)ncnc32)[C@H](O)[C@@H]1O
Active | CCOc1ncnc2c1ncn2[C@@H]1O[C@H](COC(=O)C(C)C)[C@@H](OC(=O)C(C)C)[C@H]1OC(=O)C(C)C
inactive | CN(C)/C=N/c1ccn([C@@H]2O[C@H](CO)[C@@H](O)[C@H]2O)c(=O)n1
Active | CN(C)CCNc1ncnc2c1ncn2[C@@H]1O[C@H](CO)[C@@H](O)[C@H]1O
Active | CCOc1ncnc2c1ncn2[C@@H]1O[C@H](CO)[C@@H](O)[C@H]1O
Active | CN(C)/C=N/c1ncnc2c1ncn2[C@@H]1O[C@H](CO)[C@@H](O)[C@H]1O
inactive | COc1ncnc2c1ncn2[C@@H]1O[C@H](CCl)[C@@H](O)[C@H]1O
Active | CCCOc1ncnc2c1ncn2[C@@H]1O[C@H](CO)[C@@H](O)[C@H]1O
inactive | CN(C)/C=N/c1ncnc2c1ncn2[C@H]1C[C@H](O)[C@@H](CO)O1
Active | CCOc1ncnc2c1ncn2[C@@H]1O[C@H](COP(=O)(N[C@@H](C)C(=O)OC(C)C)Oc2ccccc2)[C@@H](O)[C@H]1O (some centres undefined)
Active | C=CCNc1ncnc2c1ncn2[C@@H]1O[C@H](CO)[C@@H](O)[C@H]1O
Active | CCOc1ncnc2c1ncn2[C@@H]1O[C@H](COC(=O)[C@@H](N)C(C)C)[C@@H](O)[C@H]1O
Active | OC[C@H]1O[C@@H](n2cnc3c(NCc4ccc(-c5ccccc5)cc4)ncnc32)[C@H](O)[C@@H]1O
Active | OC[C@H]1O[C@@H](n2cnc3c(NCc4ccccc4)ncnc32)[C@H](O)[C@@H]1O
inactive | CN(C)/C=N/c1nc2c(ncn2[C@@H]2O[C@H](CO)[C@@H](O)[C@H]2O)c(=O)[nH]1
inactive | OC[C@H]1O[C@@H](n2cnc3c(OCc4ccccc4)ncnc32)[C@H](O)[C@@H]1O
Active | CCCCC(=O)OC[C@H]1O[C@@H](n2cnc3c(OCC)ncnc32)[C@H](OC(=O)CCCC)[C@@H]1OC(=O)CCCC
Active | CC(C)CNc1ncnc2c1ncn2[C@@H]1O[C@H](CO)[C@@H](O)[C@H]1O
Active | CCNc1ncnc2c1ncn2[C@@H]1O[C@H](CO)[C@@H](O)[C@H]1O
inactive | CC(C)Oc1ncnc2c1ncn2[C@@H]1O[C@H](CO)[C@@H](O)[C@H]1O
Active | OC[C@H]1O[C@@H](n2cnc3c(OCC(F)F)ncnc32)[C@H](O)[C@@H]1O
Active | CCCCC(=O)OC[C@H]1O[C@@H](n2cnc3c(OCC)ncnc32)[C@H](O)[C@@H]1O
inactive | CN(C)/C=N/c1ncnc2[nH]cnc12
inactive | CCOc1nc(N)nc2c1ncn2[C@@H]1O[C@H](CO)[C@@H](O)[C@H]1O
inactive | CCOc1ncnc2c1ncn2[C@H]1C[C@H](O)[C@@H](CO)O1
inactive | CCOc1ncnc2[nH]cnc12
Active | COCCNc1ncnc2c1ncn2[C@@H]1O[C@H](CO)[C@@H](O)[C@H]1O

Target: Stimulator of interferon genes protein (Homo sapiens) (UniProt Q86WV6)
Assay: Activation of human STING expressed in monocytes co-expressing IFN assessed as alkaline phosphatase secretion in presence of adenosine deaminase inhibitor erytftro-9-(2-hydroxy-3-nonyl) adenine by SEAP reporter gene assay
Format: cell-based

Activity | SMILES
Active | CCOc1ncnc2c1ncn2[C@@H]1O[C@H](CO)[C@@H](O)[C@H]1O

Target: Stimulator of interferon genes protein (Homo sapiens) (UniProt Q86WV6)
Assay: Activation of human STING expressed in monocytes co-expressing IFN assessed as alkaline phosphatase secretion in presence of adenosine kinase inhibitor 5-iodotubercidin by SEAP reporter gene assay
Format: cell-based

Activity | SMILES
inactive | CCOc1ncnc2c1ncn2[C@@H]1O[C@H](CO)[C@@H](O)[C@H]1O
